Results: paper PMC3111206, “Phase I study of PD 0332991, a cyclin-dependent kinase inhibitor, administered in 3-week cycles (Schedule 2/1)” (British Journal of Cancer, 2011)
“Also recorded” adds a separate entry of the source.

Tests used:
[1] = tested on: Rb-negative cell lines; design: method as in Fry et al, 2004; conditions: ref Fry et al, 2004, cited from earlier work
[2] = tested on: Rb-negative tumours; design: method as in Fry et al, 2004; conditions: in vivo; ref Fry et al, 2004; cited from earlier work
[3] = QTc interval from triplicate electrocardiograms; type: in vivo, human; conditions: Fridericia's correction
Experimental: (§1) Safety was assessed at baseline, at regular intervals throughout the study, and within 1 week following treatment discontinuation by recording AEs, haematological and biochemical parameters, and physical status (including ECOG performance status). Adverse event severity was graded using the National Cancer Institute Common Terminology Criteria for Adverse Events, version 3.0 ([Trotti et al, 2003]). Triplicate electrocardiograms (ECGs) ∼2 min apart were taken at baseline, 3 h post-dose on days 1, 8 and 15 of cycle 1, and on day 15 of subsequent cycles for up to six cycles.

[4] = Safety assessment: adverse events and haematological toxicity graded by NCI CTCAE v3.0; type: in vivo, human; conditions: for Treatment-related Alopecia, All grades / Treatment-related Alopecia, Grade 3 / Treatment-related Anorexia, All grades / Treatment-related Anorexia, Grade 3 / Treatment-related Chills, All grades / Treatment-related Chills, Grade 3 / Treatment-related Constipation, All grades / Treatment-related Constipation, Grade 3 / Treatment-related Cough, All grades / Treatment-related Cough, Grade 3 / Treatment-related Diarrhoea, All grades / Treatment-related Diarrhoea, Grade 3 / Treatment-related Dyspnea, All grades / Treatment-related Dyspnea, Grade 3 / Treatment-related Epistaxis, All grades / Treatment-related Epistaxis, Grade 3 / Treatment-related Fatigue, All grades / Treatment-related Fatigue, Grade 3 / Treatment-related Flatulence, All grades / Treatment-related Flatulence, Grade 3 / Treatment-related Mucosal inflammation, All grades / Treatment-related Mucosal inflammation, Grade 3 / Treatment-related Muscular weakness, All grades / Treatment-related Muscular weakness, Grade 3 / Treatment-related Nausea, All grades / Treatment-related Nausea, Grade 3 / Treatment-related Peripheral oedema, All grades / Treatment-related Peripheral oedema, Grade 3 / Treatment-related Pyrexia, All grades / Treatment-related Pyrexia, Grade 3 / Treatment-related Rash, All grades / Treatment-related Rash, Grade 3 / Treatment-related Vomiting, All grades / Treatment-related Vomiting, Grade 3: all cohorts combined (N=33)
Experimental: as §1

[5] = tested on: platelets; experiment: Pharmacodynamic Emax modelling of change in platelets vs individual AUC; type: in vivo; conditions: Homo sapiens, Platelet; cycle 1, vs individual AUC, 30 patients; s.e. 16.9; 18.3% CV; read-out: Emax for platelets (change from baseline)
Experimental: To document the course of changes in absolute neutrophil count (ANC) and platelets over time during the first two cycles of treatment, an exploratory analysis of data available from the weekly safety laboratory tests was carried out. Possible relationships between PD 0332991 exposure and changes in (i) ANC and (ii) platelets were assessed further by fitting a simple model (without baseline) to determine the maximum […] (Emax).

[6] = tested on: Rb-positive solid tumours or non-Hodgkin's lymphoma; experiment: Tumour response by RECIST v1.0; type: in vivo, human
Experimental: Tumour measurements derived from computed tomography or magnetic resonance imaging scans were obtained at baseline, after every 2 cycles during the study, and at the end of treatment. Tumour responses were evaluated based on Response Evaluation Criteria in Solid Tumors, version 1.0 ([Therasse et al, 2000]).

[7] = 200 mg QD, cycle 1, 20 patients
[8] = maximum toxicity grade, worsened vs baseline, all cohorts and all cycles (N=33)

## CC(=O)c1c(C)c2cnc(Nc3ccc(N4CCNCC4)cn3)nc2n(C2CCCC2)c1=O [PD 0332991]
[1]; in vitro
  Activity against Rb-negative cell lines: no activity
[1]; leading to cell-cycle arrest at G1
  Anti-proliferative effect in vitro: potent anti-proliferative effect
[2]
  Activity against Rb-negative tumours: without activity
[3]
  Patients with maximum on-treatment QTc ⩾500-msec or >30-msec increase from baseline: no patients
[4]; [7]
  Neutropenia, NCICTCAE Grade 0: 11 n
  Neutropenia, NCICTCAE Grade 1: 0 n
  Neutropenia, NCICTCAE Grade 2: 3 n
  Neutropenia, NCICTCAE Grade 3: 6 n
  Neutropenia, NCICTCAE Grade 4: 0 n
[4]; 200 mg QD, during cycle 1
  Patients with treatment interrupted following treatment-related AEs: eight
[4]; 225 mg QD, cycle 1, 6 patients
  Neutropenia, NCICTCAE Grade 0: 3 n
  Neutropenia, NCICTCAE Grade 1: 0 n
  Neutropenia, NCICTCAE Grade 2: 0 n
  Neutropenia, NCICTCAE Grade 3: 2 n
  Neutropenia, NCICTCAE Grade 4: 1 n
[4]; After cycle 1
  Treatment-related Alopecia, All grades: 2 (6) n (%)
  Treatment-related Alopecia, Grade 3: 0 n (%)
  Treatment-related Anorexia, All grades: 3 (9) n (%)
  Treatment-related Anorexia, Grade 3: 0 n (%)
  Treatment-related Chills, All grades: 2 (6) n (%)
  Treatment-related Chills, Grade 3: 0 n (%)
  Treatment-related Constipation, All grades: 3 (9) n (%)
  Treatment-related Constipation, Grade 3: 0 n (%)
  Treatment-related Cough, All grades: 2 (6) n (%)
  Treatment-related Cough, Grade 3: 0 n (%)
  Treatment-related Diarrhoea, All grades: 10 (30) n (%)
  Treatment-related Diarrhoea, Grade 3: 0 n (%)
  Treatment-related Dyspnea, All grades: 1 (3) n (%)
  Treatment-related Dyspnea, Grade 3: 0 n (%)
  Treatment-related Epistaxis, All grades: 4 (12) n (%)
  Treatment-related Epistaxis, Grade 3: 0 n (%)
  Treatment-related Fatigue, All grades: 10 (30) n (%)
  Treatment-related Fatigue, Grade 3: 1 (3) n (%)
  Treatment-related Flatulence, All grades: 3 (9) n (%)
  Treatment-related Flatulence, Grade 3: 0 n (%)
  Treatment-related Mucosal inflammation, All grades: 3 (9) n (%)
  Treatment-related Mucosal inflammation, Grade 3: 0 n (%)
  Treatment-related Muscular weakness, All grades: 2 (6) n (%)
  Treatment-related Muscular weakness, Grade 3: 0 n (%)
  Treatment-related Nausea, All grades: 5 (15) n (%)
  Treatment-related Nausea, Grade 3: 1 (3) n (%)
  Treatment-related Peripheral oedema, All grades: 2 (6) n (%)
  Treatment-related Peripheral oedema, Grade 3: 0 n (%)
  Treatment-related Pyrexia, All grades: 2 (6) n (%)
  Treatment-related Pyrexia, Grade 3: 0 n (%)
  Treatment-related Rash, All grades: 2 (6) n (%)
  Treatment-related Rash, Grade 3: 0 n (%)
  Treatment-related Vomiting, All grades: 2 (6) n (%)
  Treatment-related Vomiting, Grade 3: 1 (3) n (%)
[4]; Cycle 1
  Treatment-related Alopecia, All grades: 0 n (%)
  Treatment-related Alopecia, Grade 3: 0 n (%)
  Treatment-related Anorexia, All grades: 1 (3) n (%)
  Treatment-related Anorexia, Grade 3: 0 n (%)
  Treatment-related Chills, All grades: 0 n (%)
  Treatment-related Chills, Grade 3: 0 n (%)
  Treatment-related Constipation, All grades: 4 (12) n (%)
  Treatment-related Constipation, Grade 3: 0 n (%)
  Treatment-related Cough, All grades: 0 n (%)
  Treatment-related Cough, Grade 3: 0 n (%)
  Treatment-related Diarrhoea, All grades: 6 (18) n (%)
  Treatment-related Diarrhoea, Grade 3: 0 n (%)
  Treatment-related Dyspnea, All grades: 3 (9) n (%)
  Treatment-related Dyspnea, Grade 3: 0 n (%)
  Treatment-related Epistaxis, All grades: 0 n (%)
  Treatment-related Epistaxis, Grade 3: 0 n (%)
  Treatment-related Fatigue, All grades: 11 (33) n (%)
  Treatment-related Fatigue, Grade 3: 0 n (%)
  Treatment-related Flatulence, All grades: 0 n (%)
  Treatment-related Flatulence, Grade 3: 0 n (%)
  Treatment-related Mucosal inflammation, All grades: 0 n (%)
  Treatment-related Mucosal inflammation, Grade 3: 0 n (%)
  Treatment-related Muscular weakness, All grades: 0 n (%)
  Treatment-related Muscular weakness, Grade 3: 0 n (%)
  Treatment-related Nausea, All grades: 10 (30) n (%)
  Treatment-related Nausea, Grade 3: 0 n (%)
  Treatment-related Peripheral oedema, All grades: 3 (9) n (%)
  Treatment-related Peripheral oedema, Grade 3: 0 n (%)
  Treatment-related Pyrexia, All grades: 1 (3) n (%)
  Treatment-related Pyrexia, Grade 3: 0 n (%)
  Treatment-related Rash, All grades: 4 (12) n (%)
  Treatment-related Rash, Grade 3: 0 n (%)
  Treatment-related Vomiting, All grades: 2 (6) n (%)
  Treatment-related Vomiting, Grade 3: 0 n (%)
[4]; after cycle 1 (two 200-mg QD, one 225-mg QD)
  Patients with treatment interrupted following treatment-related AEs: three
[4]; after cycle 1, all cohorts
  Diarrhoea incidence: 30%
  Epistaxis incidence: 12%
  Fatigue incidence: 30%
  Nausea incidence: 15%
[4]; all cohorts
  Grade 1/2 leukopenia and thrombocytopenia: 58–67 % of patients
  Grade 3/4 leukopenia and neutropenia: 20–25 % of patients
  Patients requiring dose reductions: Five
  Patients who discontinued treatment permanently because of treatment-related AEs: No patient
  Treatment-related grade 4 non-haematological AEs: no treatment-related grade 4 non-haematological AEs; also recorded: no treatment-related grade 4 toxicity
[4]; all cohorts and cycles
  Grade 3 or 4 leukopenia: 21%
  Grade 3 or 4 lymphopenia: 36%
  Grade 3 or 4 neutropenia: 24%
  Grade 3 or 4 thrombocytopenia: 9%
[4]; all cohorts and cycles, a single patient
  Grade 3 or 4 anaemia: 3%
[4]; all cohorts, all after the first cycle (fatigue, hyperglycaemia, hyponatremia, nausea, vomiting; n=1 each)
  Number of grade 3 non-haematological AEs: Five
[4]; during cycle 1, all cohorts
  Constipation incidence: 12%
  Diarrhoea incidence: 18%
  Fatigue incidence: 33%
  Nausea incidence: 30%
  Rash incidence: 12%
[4]; [8]
  Anaemia, Grade 1/2: 21 (64) n (%)
  Anaemia, Grade 3/4: 1 (3) n (%)
  Leukopenia, Grade 1/2: 22 (67) n (%)
  Leukopenia, Grade 3/4: 7 (21) n (%)
  Lymphopenia, Grade 1/2: 8 (24) n (%)
  Lymphopenia, Grade 3/4: 12 (36) n (%)
  Neutropenia, Grade 1/2: 14 (42) n (%)
  Neutropenia, Grade 3/4: 8 (24) n (%)
  Thrombocytopenia, Grade 1/2: 19 (58) n (%)
  Thrombocytopenia, Grade 3/4: 3 (9) n (%)
[5]
  Emax: 92.2%
[6]; 31 evaluable patients, testicular cancer, 200 mg QD, Schedule 2/1
  Patients with partial response (PR): one
[6]; one patient with angiomyxoma, 200-mg QD cohort
  Duration of stable disease: 19 cycles
[6]; one patient with liposarcoma, 100-mg QD cohort
  Duration of stable disease: 11 cycles
[6]; one patient with liposarcoma, 225-mg QD cohort
  Duration of stable disease: ≥ 23 cycles
